Patent US20250144067A1, “PERSONALIZED STARVATION THERAPY FOR CANCER” (Faeth Therapeutics, Inc., priority 2021, published 2025)
Structures can show the parent of a compound that is named as a salt.

How the values were obtained:
[1] = test system: NCI-H292 lung cancer cells; assay: FDA drug screening, complete media vs cholesterol-free media without statin (TABLE 1); format: cell-based, human
[2] = test system: NCI-H292 lung cancer cells; assay: FDA drug screening, complete media vs cholesterol-free media with simvastatin (TABLE 2); format: cell-based, human; conditions: for Cholesterol-free media + simvastatin (0.04 μM) / Complete Media: NCI-H292 cells
[3] = Complete minus Cholesterol-free, greater than 0 enhanced anti-cancer activity, about 0 neutral, below 0 antagonist
[4] = NCI-H292 cells, FDA drug library screen, cholesterol-free media without statin
[5] = NCI-H292 cells, FDA drug library screen, complete media
[6] = drug in cholesterol-free media with simvastatin 0.04 μM
[7] = complete media vs cholesterol-free media + simvastatin (0.04 μM), >0 enhanced anti-cancer activity, about 0 neutral, <0 antagonist
[8] = NCI-H292 cells, cholesterol-free media without statin, FDA drug library screen
[9] = NCI-H292 cells, complete media, FDA drug library screen
[10] = complete vs cholesterol-free media, >0 enhanced anti-cancer activity, about 0 neutral, <0 antagonist
[11] = cholesterol-free media with simvastatin 0.04 μM, FDA drug library screen (TABLE 2)
[12] = complete media, FDA drug library screen (TABLE 2)
[13] = complete media minus cholesterol-free media + simvastatin (0.04 μM), >0 enhanced anti-cancer activity, about 0 neutral, <0 antagonist
[14] = NCI-H292 cells, cholesterol-free media without statin
[15] = complete vs cholesterol-free media, greater than 0 enhanced anti-cancer activity, about 0 neutral, below 0 antagonists
[16] = FDA library drug in cholesterol-free media with simvastatin 0.04 μM
[17] = FDA library drug in complete media
[18] = Complete minus Cholesterol-free, […]
[19] = FDA drug library screen, cholesterol-free media with simvastatin 0.04 μM
[20] = FDA drug library screen, complete media
[21] = complete media minus cholesterol-free media + simvastatin, […]
[22] = Complete minus Cholesterol-free, >0 enhanced anti-cancer activity, about 0 neutral, <0 antagonist
[23] = Complete minus Cholesterol-free, greater than 0 enhanced anti-cancer activity, about 0 neutral, below 0 antagonists
[24] = NCI-H292 cells in cholesterol-free media without statin
[25] = NCI-H292 cells in complete media
[26] = complete media minus cholesterol-free media + simvastatin, >0 enhanced anti-cancer activity, about 0 neutral, <0 antagonist

Compound: Cc1cn([C@H]2C=C[C@@H](CO)O2)c(=O)[nH]c1=O [Stavudine]
- Difference [1, 3]: −0.09
- Cholesterol-free [1, 4]: 0.9921
- Complete [1, 5]: 0.8994
- Cholesterol-free media + simvastatin (0.04 μM) [2, 6]: 1.022
- Complete Media ([2]; drug in complete media): 0.8293
- Difference [2, 7]: −0.19

Compound: C[C@@H](c1ncncc1F)[C@](O)(Cn1cncn1)c1ccc(F)cc1F [Voriconazole]
- Cholesterol-free [1, 8]: 0.6824
- Complete [1, 9]: 0.9897
- Difference [1, 10]: 0.31
- Cholesterol-free media + simvastatin (0.04 μM) [2, 6]: 1.08
- Complete Media ([2]; drug in complete media): 0.8559
- Difference [2, 7]: −0.22

Compound: C[C@](N)(Cc1ccc(O)cc1)C(=O)O [Metyrosine]
- Difference [1, 3]: −0.10
- Cholesterol-free [1, 4]: 1.606
- Complete [1, 5]: 1.504
- Cholesterol-free media + simvastatin (0.04 μM) [2, 11]: 0.9769
- Complete Media [2, 12]: 0.9769
- Difference [2, 13]: 0.00

Compound: CC1(C)S[C@@H]2[C@H](NC(=O)[C@H](N)c3ccccc3)C(=O)N2[C@H]1C(=O)[O-].[Na+] [Ampicillin (sodium)]
- Cholesterol-free [1, 14]: 1.356
- Complete ([1]; NCI-H292 cells, complete media): 0.9032
- Difference [1, 15]: −0.45
- Cholesterol-free media + simvastatin (0.04 μM) [2, 6]: 1.087
- Complete Media ([2]; drug in complete media): 0.8623
- Difference [2, 7]: −0.22

Compound: CCNC(=O)CCC/C=C\C[C@@H]1[C@@H](/C=C/[C@@H](O)CCc2ccccc2)[C@H](O)C[C@@H]1O [Bimatoprost]
- Cholesterol-free [1, 14]: 1.545
- Complete ([1]; NCI-H292 cells, complete media): 1.142
- Difference [1, 15]: −0.40
- Cholesterol-free media + simvastatin (0.04 μM) [2, 16]: 1.43
- Complete Media [2, 17]: 0.9569
- Difference [2, 7]: −0.47

Compound: Nc1nc(=O)c2c([nH]1)NC[C@H](CNc1ccc(C(=O)N[C@@H](CCC(=O)[O-])C(=O)[O-])cc1)N2C=O.[Ca+2] [Levoleucovorin (Calcium)]
- Difference [1, 18]: −0.05
- Cholesterol-free [1, 8]: 1.535
- Complete [1, 9]: 1.487
- Cholesterol-free media + simvastatin (0.04 μM) [2, 19]: 1.534
- Complete Media [2, 20]: 1.758
- Difference [2, 21]: 0.22

Compound: C[C@H]1COc2c(N3CCN(C)CC3)c(F)cc3c(=O)c(C(=O)O)cn1c23 [Levofloxacin]
- Difference [1, 22]: −0.23
- Cholesterol-free [1, 14]: 1.162
- Complete ([1]; NCI-H292 cells, complete media): 0.933
- Cholesterol-free media + simvastatin (0.04 μM) [2, 6]: 1.136
- Complete Media ([2]; drug in complete media): 0.944
- Difference [2, 7]: −0.19

Compound: COc1cc(C(=O)NC2CCCNC2)cc(OC)c1OC (centres unmarked) [Troxipide]
- Difference [1, 23]: −0.70
- Cholesterol-free [1, 24]: 1.812
- Complete [1, 25]: 1.111
- Cholesterol-free media + simvastatin (0.04 μM) [2, 16]: 1.578
- Complete Media [2, 17]: 1.185
- Difference [2, 7]: −0.39

Compound: C=CC(N)CCC(=O)O (centres unmarked) [Vigabatrin (hydrochloride)]
- Difference [1, 23]: −0.74
- Cholesterol-free [1, 24]: 1.769
- Complete [1, 25]: 1.024
- Cholesterol-free media + simvastatin (0.04 μM) [2, 11]: 1.122
- Complete Media [2, 12]: 1.063
- Difference [2, 13]: −0.06

Compound: CC12CCC(CC1=O)C2(C)C (centres unmarked) [Camphor]
- Difference [1, 23]: −0.48
- Cholesterol-free [1, 24]: 1.372
- Complete [1, 25]: 0.8909
- Cholesterol-free media + simvastatin (0.04 μM) [2, 19]: 1.13
- Complete Media [2, 20]: 0.9969
- Difference [2, 7]: −0.13

Compound: COc1cc([C@@H]2c3cc4c(cc3[C@@H](O[C@@H]3O[C@@H]5CO[C@@H](C)O[C@H]5[C@H](O)[C@H]3O)[C@H]3COC(=O)[C@H]23)OCO4)cc(OC)c1OP(=O)(O)O [Etoposide phosphate]
- Difference [1, 3]: −0.10
- Cholesterol-free [1, 4]: 0.7876
- Complete [1, 5]: 0.6917
- Cholesterol-free media + simvastatin (0.04 μM) [2, 6]: 0.9468
- Complete Media ([2]; drug in complete media): 0.7461
- Difference [2, 7]: −0.20

Compound: CN1[C@@H]2CC[C@H]1C[C@@H](OC(=O)[C@H](CO)c1ccccc1)C2 [L-Hyoscyamine]
- Difference [1, 18]: −0.26
- Cholesterol-free [1, 14]: 1.23
- Complete ([1]; NCI-H292 cells, complete media): 0.9714
- Cholesterol-free media + simvastatin (0.04 μM) [2, 6]: 1.192
- Complete Media ([2]; drug in complete media): 1.027
- Difference ([2]; complete media vs cholesterol-free media + simvastatin (0.04 μM), […]): −0.16

Compound: Fludarabine (phosphate)
- Difference [1, 18]: −0.10
- Complete [1, 5]: 0.9769
- Cholesterol-free media + simvastatin (0.04 μM) ([2]; cholesterol-free media with simvastatin 0.04 μM, […]): 1.095
- Complete Media ([2]; complete media, […]): 1.138
- Difference [2, 21]: 0.04

Compound: Nc1ncnc2c1ncn2CCOCP(=O)(O)O [Adefovir]
- Cholesterol-free [1, 8]: 0.8102
- Complete [1, 9]: 1.199
- Difference ([1]; complete vs cholesterol-free media, […]): 0.39
- Cholesterol-free media + simvastatin (0.04 μM) [2, 11]: 0.9937
- Complete Media [2, 12]: 0.9462
- Difference ([2]; complete media minus cholesterol-free media + simvastatin (0.04 μM), […]): −0.05

Compound: CSCC[C@H](N)C(=O)O [L-Methionine]
- Difference [1, 3]: −0.12
- Cholesterol-free [1, 4]: 0.9015
- Complete [1, 5]: 0.7822
- Cholesterol-free media + simvastatin (0.04 μM) ([2]; cholesterol-free media with simvastatin 0.04 μM, cell growth value in FDA drug screen): 0.8406
- Complete Media ([2]; complete media, cell growth value in FDA drug screen): 0.8869
- Difference [2, 26]: 0.05

Compound: Cisatracurium (besylate)
- Difference [1, 3]: −0.15
- Cholesterol-free [1, 4]: 1.321
- Complete [1, 5]: 1.173
- Cholesterol-free media + simvastatin (0.04 μM) [2, 19]: 1.09
- Complete Media [2, 20]: 1.349
- Difference [2, 26]: 0.26

Compound: CCCCOCCOCCOCc1cc2c(cc1CCC)OCO2 [Piperonyl butoxide]
- Difference [1, 22]: −0.29
- Cholesterol-free [1, 14]: 1.491
- Complete ([1]; NCI-H292 cells, complete media): 1.202
- Cholesterol-free media + simvastatin (0.04 μM) [2, 11]: 1.206
- Complete Media [2, 12]: 1.18
- Difference [2, 13]: −0.03

Compound: CC[C@H]1[C@@H](O)[C@@H]2[C@H](CC[C@]3(C)[C@@H]([C@H](C)CCC(=O)O)CC[C@@H]23)[C@@]2(C)CC[C@@H](O)C[C@@H]12 [Obeticholic acid]
- Cholesterol-free [1, 8]: 0.5907
- Complete [1, 9]: 0.9124
- Difference [1, 10]: 0.32
- Cholesterol-free media + simvastatin (0.04 μM) [2, 19]: 1.258
- Complete Media [2, 20]: 1.13
- Difference [2, 7]: −0.13

Compound: Cc1cccc(C)c1N(CC(=O)Nc1ccc(-c2ncon2)cc1)C(=O)C1CCS(=O)(=O)CC1 [Amenamevir]
- Difference [1, 3]: −0.08
- Cholesterol-free [1, 4]: 0.9508
- Complete [1, 5]: 0.8718
- Cholesterol-free media + simvastatin (0.04 μM) [2, 19]: 0.9047
- Complete Media [2, 20]: 1.06
- Difference [2, 26]: 0.16

Compound: COc1ccc2c(c1)C(=O)N(CCc1ccc(S(=O)(=O)NC(=O)NC3CCCCC3)cc1)C(=O)C2(C)C [Gliquidone]
- Difference [1, 23]: −0.68
- Cholesterol-free [1, 24]: 1.724
- Complete [1, 25]: 1.039
- Cholesterol-free media + simvastatin (0.04 μM) [2, 16]: 1.335
- Complete Media [2, 17]: 1.002
- Difference [2, 7]: −0.33

Compound: Cc1ccc(NC(=O)c2ccc(CN3CCN(C)CC3)cc2)cc1Nc1nccc(-c2cccnc2)n1 [Imatinib]
- Cholesterol-free [1, 14]: 1.28
- Complete ([1]; NCI-H292 cells, complete media): 0.9175
- Difference [1, 15]: −0.36
- Cholesterol-free media + simvastatin (0.04 μM) [2, 11]: 1.214
- Complete Media [2, 12]: 1.199
- Difference [2, 13]: −0.01

Compound: CN(C/C=C/C#CC(C)(C)C)Cc1cccc2ccccc12 [Terbinafine]
- Cholesterol-free [1, 8]: 1.229
- Complete [1, 9]: 1.421
- Difference [1, 10]: 0.19
- Cholesterol-free media + simvastatin (0.04 μM) [2, 19]: 1.066
- Complete Media [2, 20]: 0.9483
- Difference [2, 7]: −0.12
